Results as given in patent US20090246169A1, “INDOLOPYRIDINES AS EG5 KINESIN MODULATORS” (priority 2006, published 2009).

Tested on: RKO p21 colon adenocarcinoma cells, uninduced (proliferating)
Test: Alamar Blue cell viability assay, RKO p21 uninduced (proliferating)
Assay type: cell-based
Settings: Homo sapiens; anti-proliferative/cytotoxic activity, 72 hours, without Ponasterone A; read-out: −log EC50 [mol/l] RKO p21 uninduced (proliferating) (converted)
Method: The anti-proliferative/cytotoxic activity of the compounds described herein can be tested on subclones of RKO human colon adenocarcinoma cells (Schmidt et al., Oncogene 19, 2423-2429; 2000) using the Alamar Blue cell viability assay (described in O'Brien et al. Eur J Biochem 267, 5421-5426, 2000). The compounds are dissolved as 10 mM solutions in DMSO and subsequently diluted in semi-logarithmic steps. DMSO dilutions are further diluted 1:100 into Dulbecco's modified Eagle's medium (DMEM) containing 10% fetal calf serum to a final concentration twice as much as the final concentration in the test. RKO subclones are seeded into 96 well flat bottom plates at a density of 4000 cells per well in a volume of 50 μl per well. 24 hours after seeding the 50 μl each of the compound dilutions in DMEM medium are added into each well of the 96 well plate. Each compound dilution is tested as triplicates. Wells containing untreated control cells are filled with 50 μl DMEM medium containing 1% DMSO. The cells are then incubated with the substances for 72 hours at 37° C. in a humidified atmosphere containing 5% carbon dioxide. To determine the viability of the cells, 10 μl of an Alamar Blue solution (Biosource) are added and the fluorescence is measured at an extinction of 544 nm and an emission of 590 nm. For the calculation of the cell viability the emission value from untreated cells is set as 100% viability and the emission rates of treated cells are set in relation to the values of untreated cells. Viabilities are expressed as % values. The Graphpad Prism program is used for the calculation of EC50 values for anti-proliferative/cytotoxic activity out of the obtained dose-response curves.
To determine the cell cycle specific mode of action, subclones of RKO colon adenocarcinoma cells (RKOp21 or RKOp27 as described by Schmidt et al. in Oncogene 19, 2423-2429; 2000) are seeded into 96 well flat bottom plates at a density of 16000 cells per well in a volume of 50 μl per well in DMEM growth medium with 10% FCS containing 10 μM Ponasterone A. 24 hours after seeding the 50 μl each of the compound dilutions in DMEM medium are added into each well of the 96-well plate. Each compound dilution is tested as triplicates. Wells containing untreated control cells are filled with 50 μl DMEM medium containing 1% DMSO. The cells are then incubated with the substances for 72 hours at 37° C. in a humidified atmosphere containing 5% carbon dioxide. To determine the viability of the cells, 10 μl of an Alamar Blue solution (Biosource) are added and the fluorescence is measured at an extinction of 544 nm and an emission of 590 nm. For the calculation of the cell viability the emission value from untreated cells is set as 100% viability and the emission rates of treated cells are set in relation to the values of untreated cells. Viabilities are expressed as % values. The Graphpad Prism program (GraphPad Software, Inc) is used for the calculation of EC50 values out of the obtained dose-response curves. Viability is compared of proliferating cells grown in the absence of the inducer Ponasterone A, versus viability of cells arrested by the expression of ectopic p27Kip1 induced by Ponasterone A.
Representative values for anti-proliferation/cytotoxicity [measured as −log EC50 (mol/l)] determined in the aforementioned assays follow from the following tables B1 and B2, in which the numbers of the compounds correspond to the numbers of the examples.

| SMILES | EC50 [nM] |
| --- | --- |
| COc1ccc2[nH]c3c(c2c1)C[C@@]1(C)C(=O)N(CCN2CCN(C(C)=O)CC2)C(=O)N1[C@@H]3c1ccccc1 (racemic) [Example 47, (3aSR, 10RS)-2-[2-(4-Acetyl-piperazin-1-yl)-ethyl]-6-methoxy-3a-methyl-10-phenyl-3a,4,9,10-tetrahydro-2,9,10a-triaza-cyclopenta[b] fluorene-1,3-dione] | ≤ 1000 |
| COc1ccc2[nH]c3c(c2c1)C[C@@]1(C)C(=O)N(CCN2CC=CC2)C(=O)N1[C@@H]3c1ccccc1 (racemic) [Example 31, (3aSR, 10RS)-2-[2-(2,5-Dihydro-pyrrol-1-yl)-ethyl]-6-methoxy-3a-methyl-10-phenyl-3a,4,9,10-tetrahydro-2,9,10a-triaza-cyclopenta[b] fluorene-1,3-dione] | ≤ 1000 |
| COc1ccc2[nH]c3c(c2c1)C[C@@]1(C)C(=O)N(CCN(C)CCO)C(=O)N1[C@@H]3c1ccccc1 (racemic) [Example 30, (3aSR, 10RS)-2-{2-[(2-Hydroxy-ethyl)-methyl-amino]-ethyl}-6-methoxy-3a-methyl-10-phenyl-3a,4,9,10-tetrahydro-2,9,10a-triaza-cyclopenta[b]fluorene-1,3-dione] | ≤ 1000 |
| COc1ccc2[nH]c3c(c2c1)C[C@@]1(C)C(=O)N(CCNC(C)(C)C)C(=O)N1[C@@H]3c1ccccc1 (racemic) [Example 27, (3aSR, 10RS)-2-(2-tert-Butylamino-ethyl)-6-methoxy-3a-methyl-10-phenyl-3a,4,9,10-tetrahydro-2,9,10a-triaza-cyclopenta[b]fluorene-1,3-dione] | ≤ 1000 |
| C#CC(C)NCCN1C(=O)N2[C@H](c3ccccc3)c3[nH]c4ccc(OC)cc4c3C[C@@]2(C)C1=O (stereo partly drawn) [Example 48, (3aSR, 10RS)-6-Methoxy-3a-methyl-2-[2-(R)-1-methyl-prop-2-ynylamino)-ethyl]-10-phenyl-3a,4,9,10-tetrahydro-2,9,10a-triaza-cyclopenta [b]fluorene-1,3-dione and (3aSR, 10RS)-6-Methoxy-3a-methyl-2-[2-(S)-1-methyl-prop-2-ynylamino)-ethyl]-10-phenyl-3a,4,9,10-tetra-hydro-2,9,10a-triaza-cyclo-penta[b]fluorene-1,3-dione] | ≤ 1000 |
| COc1ccc2[nH]c3c(c2c1)C[C@@]1(C)C(=O)N(CCCNC(C)C)C(=O)N1[C@@H]3c1ccccc1 (racemic) [Example 51, (3aSR, 10RS)-2-(3-Isopropylamino-propyl)-6-methoxy-3a-methyl-10-phenyl-3a,4,9,10-tetrahydro-2,9,10a-triaza-cyclopenta[b] fluorene-1,3-dione] | ≤ 1000 |
| CC[C@@]12Cc3c([nH]c4ccc(OC)cc34)[C@@H](c3ccccc3)N1C(=O)N(CCN)C2=O (racemic) [Example 10, (3aSR,10RS)-2-(2-Amino-ethyl)-3a-ethyl-6-methoxy-10-phenyl-3a,4,9,10-tetrahydro-2,9,10a-triaza-cyclopenta[b]fluorene-1,3-dione] | ≤ 1000 |
| COc1ccc2[nH]c3c(c2c1)C[C@@]1(C)C(=O)N(CCN2CCC2)C(=O)N1[C@@H]3c1ccccc1 (racemic) [Example 16, (3aSR,10RS)-2-(2-Azetidin-1-yl-ethyl)-6-methoxy-3a-methyl-10-phenyl-3a,4,9,10-tetrahydro-2,9,10a-triaza-cyclopenta[b]fluorene-1,3-dione] | ≤ 1000 |
| COc1ccc2[nH]c3c(c2c1)C[C@@]1(C)C(=O)N(CCCNCC2CC2)C(=O)N1[C@@H]3c1ccccc1 (racemic) [Example 74, (3aSR, 10RS)-2-[3-(Cyclo-propylmethyl-amino)-propyl]-6-methoxy-3a-methyl-10-phenyl-3a,4,9,10-tetrahydro-2,9,10a-triaza-cyclopenta[b] fluorene-1,3-dione] | ≤ 1000 |
| COc1ccc2[nH]c3c(c2c1)C[C@@]1(C)C(=O)N(CCCNCC(C)C)C(=O)N1[C@@H]3c1ccccc1 (racemic) [Example 52, (3aSR, 10RS)-2-(3-Isobutylamino-propyl)-6-methoxy-3a-methyl-10-phenyl-3a,4,9,10-tetrahydro-2,9,10a-triaza-cyclopenta[b] fluorene-1,3-dione] | ≤ 1000 |
| COc1ccc2[nH]c3c(c2c1)C[C@@]1(C)C(=O)N(CCCNCC(F)F)C(=O)N1[C@@H]3c1ccccc1 [Example 50, (3aS, 10R)-2-[3-(2,2-Difluoro-ethylamino)-propyl]-6-methoxy-3a-methyl-10-phenyl-3a,4,9,10-tetrahydro-2,9,10a-triaza-cyclopenta[b] fluorene-1,3-dione] | ≤ 1000 |
| C#CCNCCN1C(=O)N2[C@H](c3ccccc3)c3[nH]c4ccc(OC)cc4c3C[C@@]2(C)C1=O (racemic) [Example 29, (3aSR, 10RS)-6-Methoxy-3a-methyl-10-phenyl-2-(2-prop-2-ynylamino-ethyl)-3a,4,9,10-tetrahydro-2,9,10a-triaza-cyclopenta[b]fluorene-1,3-dione] | ≤ 1000 |
| COc1ccc2[nH]c3c(c2c1)C[C@@]1(C)C(=O)N(CCNCC(C)C)C(=O)N1[C@@H]3c1ccccc1 (racemic) [Example 35, (3aSR, 10RS)-2-(2-Isobutyl-amino-ethyl)-6-methoxy-3a-methyl-10-phenyl-3a,4,9,10-tetrahydro-2,9,10a-triaza-cyclopenta[b]fluorene-1,3-dione] | ≤ 1000 |
| C=CCN(C)CCCN1C(=O)N2[C@H](c3ccccc3)c3[nH]c4ccc(OC)cc4c3C[C@@]2(C)C1=O (racemic) [Example 57, (3aSR, 10RS)-2-[3-(Allyl-methyl-amino)-propyl]-6-methoxy-3a-methyl-10-phenyl-3a,4,9,10-tetrahydro-2,9,10a-triaza-cyclopenta[b] fluorene-1,3-dione] | ≤ 1000 |
| COc1ccc2[nH]c3c(c2c1)C[C@@]1(C)C(=O)N(CCCN(C)C)C(=O)N1[C@@H]3c1ccccc1 (racemic) [Example 45, (3aSR, 10RS)-2-(3-Dimethylamino-propyl)-6-methoxy-3a-methyl-10-phenyl-3a,4,9,10-tetrahydro-2,9,10a-triaza-cyclopenta[b] fluorene-1,3-dione] | ≤ 1000 |
| COc1ccc2[nH]c3c(c2c1)C[C@@]1(C)C(=O)N(CCCN2CCN(C(C)=O)CC2)C(=O)N1[C@@H]3c1ccccc1 (racemic) [Example 69, (3aSR, 10RS)-2-[3-(4-Acetyl-piperazin-1-yl)-propyl]-6-methoxy-3a-methyl-10-phenyl-3a,4,9,10-tetra-hydro-2,9,10a-triaza-cyclo-penta[b]fluorene-1,3-dione] | ≤ 1000 |
| CCNCCN1C(=O)N2[C@H](c3ccccc3)c3[nH]c4ccc(OC)cc4c3C[C@@]2(C)C1=O (racemic) [Example 15, (3aSR,10RS)-2-(2-Ethylamino-ethyl)-6-methoxy-3a-methyl-10-phenyl-3a,4,9,10-tetrahydro-2,9,10a-triaza-cyclopenta[b]fluorene-1,3-dione] | ≤ 1000 |
| COc1ccc2[nH]c3c(c2c1)C[C@@]1(C)C(=O)N(C)C(=O)N1[C@@H]3c1ccccc1 (racemic) [Example 2, (3aSR,10RS)-6-Methoxy-2,3a-dimethyl-10-phenyl-3a,4,9,10-tetrahydro-2,9,10a-triaza-cyclopenta[b]fluorene-1,3-dione] | ≤ 1000 |
| COCCNCCCN1C(=O)N2[C@H](c3ccccc3)c3[nH]c4ccc(OC)cc4c3C[C@@]2(C)C1=O (racemic) [Example 70, (3aSR, 10RS)-6-Methoxy-2-[3-(2-methoxy-ethylamino)-propyl]-3a-methyl-10-phenyl-3a,4,9,10-tetrahydro-2,9,10a-triaza-cyclopenta[b]fluorene-1,3-dione] | ≤ 1000 |
| COc1ccc2[nH]c3c(c2c1)C[C@@]1(C)C(=O)N(CCN(C)C(C)C)C(=O)N1[C@@H]3c1ccccc1 (racemic) [Example 39, (3aSR, 10RS)-2-[2-(Isopropyl-methyl-amino)-ethyl]-6-methoxy-3a-methyl-10-phenyl-3a,4,9,10-tetra-hydro-2,9,10a-triaza-cyclo-penta[b]fluorene-1,3-dione] | ≤ 1000 |
